According to US20260062387A1, “SALT-INDUCIBLE KINASE INHIBITOR COMPOUND AND PHARMACEUTICAL COMPOSITION INCLUDING THE SAME” (MITSUBISHI TANABE PHARMA CORPORATION, priority 2023, published 2026):

Experiments:
Assay type in all cases: biochemical
[1] = target: GST-tagged SIK1 (Homo sapiens (Human), UniProt P57059); assay: SIK1 inhibition test (ADP-Glo Max Assay); conditions: enzyme 20 nM, AMARA Peptide 200 μM, ATP 1 mM, 2 hours room temperature
Procedure, shortened: (§1)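 ADP formed was detected by luciferase luminescence after a 2 h room-temperature reaction with 1 mM ATP, 5 mM MgCl2 and AMARA peptide at 200 μM (SIK1, SIK2) or 100 μM (SIK3). Final GST-enzyme levels were 20 nM SIK1, 3 nM SIK2 and 100 nM SIK3. IC50 came from 16-point concentration-response data.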

[2] = target: GST-tagged SIK3 (Homo sapiens (Human), UniProt Q9Y2K2); assay: SIK3 inhibition test (ADP-Glo Max Assay); conditions: enzyme 100 nM, AMARA Peptide 100 μM, ATP 1 mM, 2 hours room temperature
Procedure, shortened: as §1

[3] = target: GST-tagged SIK2 (Homo sapiens (Human), UniProt Q9H0K1); assay: SIK2 inhibition test (ADP-Glo Max Assay); conditions: enzyme 3 nM, AMARA Peptide 200 μM, ATP 1 mM, 2 hours room temperature
Procedure, shortened: as §1

Sequence of GST-tagged SIK2 (Q9H0K1 whole entry): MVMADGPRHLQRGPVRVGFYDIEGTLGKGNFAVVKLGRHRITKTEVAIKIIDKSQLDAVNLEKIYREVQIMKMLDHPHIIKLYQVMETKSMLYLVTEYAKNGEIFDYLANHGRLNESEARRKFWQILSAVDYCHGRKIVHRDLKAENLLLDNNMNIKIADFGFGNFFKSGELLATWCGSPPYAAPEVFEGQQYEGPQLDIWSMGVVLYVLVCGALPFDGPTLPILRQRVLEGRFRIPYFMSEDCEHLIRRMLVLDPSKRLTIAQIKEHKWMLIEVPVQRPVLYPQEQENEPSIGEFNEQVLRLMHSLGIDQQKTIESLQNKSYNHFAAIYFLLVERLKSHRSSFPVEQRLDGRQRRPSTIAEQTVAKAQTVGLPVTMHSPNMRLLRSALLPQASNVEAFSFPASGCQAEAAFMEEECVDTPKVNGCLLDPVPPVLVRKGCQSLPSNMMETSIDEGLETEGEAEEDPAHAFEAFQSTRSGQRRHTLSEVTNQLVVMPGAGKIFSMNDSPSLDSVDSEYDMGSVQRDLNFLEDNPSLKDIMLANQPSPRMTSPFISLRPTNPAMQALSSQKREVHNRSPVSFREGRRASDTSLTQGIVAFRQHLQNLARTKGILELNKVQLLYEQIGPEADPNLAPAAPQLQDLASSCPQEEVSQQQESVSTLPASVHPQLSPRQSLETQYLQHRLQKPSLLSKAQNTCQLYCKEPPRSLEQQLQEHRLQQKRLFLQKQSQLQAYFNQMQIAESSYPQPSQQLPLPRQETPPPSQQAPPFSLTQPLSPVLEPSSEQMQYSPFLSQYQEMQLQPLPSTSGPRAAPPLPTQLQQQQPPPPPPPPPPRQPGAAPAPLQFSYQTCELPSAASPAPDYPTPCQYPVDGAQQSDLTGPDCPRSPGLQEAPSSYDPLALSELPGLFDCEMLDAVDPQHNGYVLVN
Sequence of GST-tagged SIK1 (P57059 whole entry): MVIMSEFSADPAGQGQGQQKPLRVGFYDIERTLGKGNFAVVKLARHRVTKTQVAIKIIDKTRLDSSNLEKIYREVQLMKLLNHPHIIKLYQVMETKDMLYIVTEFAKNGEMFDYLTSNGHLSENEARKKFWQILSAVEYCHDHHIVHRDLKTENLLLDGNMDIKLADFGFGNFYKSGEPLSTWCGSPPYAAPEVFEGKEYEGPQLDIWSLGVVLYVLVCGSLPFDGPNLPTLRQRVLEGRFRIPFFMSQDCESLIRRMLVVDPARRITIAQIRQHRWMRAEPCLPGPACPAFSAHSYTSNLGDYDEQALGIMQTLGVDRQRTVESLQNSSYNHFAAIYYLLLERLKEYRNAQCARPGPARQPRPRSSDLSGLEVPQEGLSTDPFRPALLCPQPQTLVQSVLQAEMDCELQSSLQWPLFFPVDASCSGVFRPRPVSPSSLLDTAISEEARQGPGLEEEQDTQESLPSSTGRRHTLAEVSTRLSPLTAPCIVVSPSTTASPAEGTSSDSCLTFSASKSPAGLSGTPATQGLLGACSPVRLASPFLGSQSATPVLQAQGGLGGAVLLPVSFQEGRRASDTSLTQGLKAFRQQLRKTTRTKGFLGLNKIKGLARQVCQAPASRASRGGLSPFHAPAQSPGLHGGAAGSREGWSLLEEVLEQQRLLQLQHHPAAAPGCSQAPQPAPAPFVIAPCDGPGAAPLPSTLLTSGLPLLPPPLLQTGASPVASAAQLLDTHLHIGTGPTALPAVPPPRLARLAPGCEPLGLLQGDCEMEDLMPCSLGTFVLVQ
Sequence of GST-tagged SIK3 (Q9Y2K2 whole entry): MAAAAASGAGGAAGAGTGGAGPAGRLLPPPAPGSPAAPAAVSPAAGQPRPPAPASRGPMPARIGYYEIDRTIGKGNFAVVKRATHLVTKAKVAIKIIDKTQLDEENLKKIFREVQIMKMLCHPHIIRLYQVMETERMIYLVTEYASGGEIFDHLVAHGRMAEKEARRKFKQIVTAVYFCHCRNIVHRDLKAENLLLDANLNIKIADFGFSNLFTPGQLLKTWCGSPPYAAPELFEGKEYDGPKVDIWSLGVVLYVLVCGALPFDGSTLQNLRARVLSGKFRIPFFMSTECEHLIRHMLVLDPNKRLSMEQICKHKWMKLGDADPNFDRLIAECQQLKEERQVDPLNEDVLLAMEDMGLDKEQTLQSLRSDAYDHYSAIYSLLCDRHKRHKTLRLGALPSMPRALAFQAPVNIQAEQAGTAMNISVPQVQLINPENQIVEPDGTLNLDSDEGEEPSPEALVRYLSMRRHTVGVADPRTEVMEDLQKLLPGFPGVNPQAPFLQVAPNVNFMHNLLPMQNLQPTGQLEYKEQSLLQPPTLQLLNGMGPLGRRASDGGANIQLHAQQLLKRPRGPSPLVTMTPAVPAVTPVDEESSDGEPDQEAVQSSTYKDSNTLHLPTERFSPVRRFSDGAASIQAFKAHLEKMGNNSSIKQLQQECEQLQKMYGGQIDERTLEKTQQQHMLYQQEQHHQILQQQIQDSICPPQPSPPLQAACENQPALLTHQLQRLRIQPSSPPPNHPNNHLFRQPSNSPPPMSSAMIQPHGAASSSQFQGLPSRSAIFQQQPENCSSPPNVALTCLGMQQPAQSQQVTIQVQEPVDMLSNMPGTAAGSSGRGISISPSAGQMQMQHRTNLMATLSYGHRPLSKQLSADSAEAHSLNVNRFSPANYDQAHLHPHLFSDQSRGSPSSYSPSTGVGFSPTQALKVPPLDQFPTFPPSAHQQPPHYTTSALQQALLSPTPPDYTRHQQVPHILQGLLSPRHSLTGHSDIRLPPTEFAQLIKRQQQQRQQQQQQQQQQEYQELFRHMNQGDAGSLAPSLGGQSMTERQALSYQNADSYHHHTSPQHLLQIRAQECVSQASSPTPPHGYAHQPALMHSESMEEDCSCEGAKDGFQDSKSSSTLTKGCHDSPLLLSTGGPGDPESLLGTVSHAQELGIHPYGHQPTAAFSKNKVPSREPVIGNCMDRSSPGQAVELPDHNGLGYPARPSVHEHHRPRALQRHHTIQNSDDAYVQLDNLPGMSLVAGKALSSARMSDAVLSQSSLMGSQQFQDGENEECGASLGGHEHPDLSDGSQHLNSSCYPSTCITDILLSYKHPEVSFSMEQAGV

| IC50 [1] [nM] | IC50 [2] [nM] | IC50 [3] [nM] | SMILES |
| --- | --- | --- | --- |
| 12.6 | 6.7 | 5.4 | COc1cc(-c2c3c(C#N)cc(-c4cnn(CC5CCOC5)c4)cc3nn2C)cc(OC(F)F)c1C(=O)NCC1(F)CC1 (stereo not drawn) [Example 78, 4-[4-cyano-2-methyl-6-[1-(oxolan-3-ylmethyl)pyrazol-4-yl]indazol-3-yl]-2-(difluoromethoxy)-N-[(1-fluorocyclopropyl)methyl]-6-methoxybenzamide] |
| 12.5 | 8.1 | 6.8 | COc1cc(-c2c3c(C#N)cc(-c4cnn(CC5CCCO5)c4)cc3nn2C)cc(OC(F)F)c1C(=O)NCC1(F)CC1 (stereo not drawn) [Example 79, 4-[4-cyano-2-methyl-6-[1-(oxolan-2-ylmethyl)pyrazol-4-yl]indazol-3-yl]-2-(difluoromethoxy)-N-[(1-fluorocyclopropyl)methyl]-6-methoxybenzamide] |
| 16.5 | 10.1 | 8.7 | COc1cc(-c2c3c(C#N)cc(-c4cnn(CC5CCO5)c4)cc3nn2C)cc(OC(F)F)c1C(=O)NCC1(F)CC1 (stereo not drawn) [Example 80, 4-[4-cyano-2-methyl-6-[1-(oxetan-2-ylmethyl)pyrazol-4-yl]indazol-3-yl]-2-(difluoromethoxy)-N-[(1-fluorocyclopropyl)methyl]-6-methoxybenzamide] |
| 13.3 | 10.6 | 7.3 | COc1cc(-c2c3c(C#N)cc(-c4cnn(CC5CCS5(=O)=O)c4)cc3nn2C)cc(OC(F)F)c1C(=O)NCC1(F)CC1 (stereo not drawn) [Example 81, 4-[4-cyano-6-[1-[(1,1-dioxothietan-2-yl)methyl]pyrazol-4-yl]-2-methylindazol-3-yl]-2-(difluoromethoxy)-N-[(1-fluorocyclopropyl)methyl]-6-methoxybenzamide] |
| 16 | 16.7 | 7.5 | COc1cc(-c2c3c(C#N)cc(-c4cnn(CC5CCCS5(=O)=O)c4)cc3nn2C)cc(OC(F)F)c1C(=O)NCC1(F)CC1 (stereo not drawn) [Example 82, 4-[4-cyano-6-[1-[(1,1-dioxothiolan-2-yl)methyl]pyrazol-4-yl]-2-methylindazol-3-yl]-2-(difluoromethoxy)-N-[(1-fluorocyclopropyl)methyl]-6-methoxybenzamide] |
| 10.5 | 10.2 | 8.1 | COc1cc(-c2c3c(C#N)cc(-c4cnn(CC5(O)CC5)c4)cc3nn2C)cc(OC(F)F)c1C(=O)NCC1(F)CC1 [Example 83, 4-[4-cyano-6-[1-[(1-hydroxycyclopropyl)methyl]pyrazol-4-yl]-2-methylindazol-3-yl]-2-(difluoromethoxy)-N-[(1-fluorocyclopropyl)methyl]-6-methoxybenzamide] |
| 13.6 | 12.5 | 11 | COc1cc(-c2c3c(C#N)cc(-c4cnn(CC5(O)CCC5)c4)cc3nn2C)cc(OC(F)F)c1C(=O)NCC1(F)CC1 [Example 84, 4-[4-cyano-6-[1-[(1-hydroxycyclobutyl)methyl]pyrazol-4-yl]-2-methylindazol-3-yl]-2-(difluoromethoxy)-N-[(1-fluorocyclopropyl)methyl]-6-methoxybenzamide] |
| 17.5 | 7.3 | 10.1 | COc1cc(-c2c3c(C#N)cc(-c4cnn(C[C@H]5C[C@@H](O)C5)c4)cc3nn2C)cc(OC(F)F)c1C(=O)NCC1(F)CC1 [Example 91, 4-[4-cyano-6-[1-[(cis-3-hydroxycyclobutyl)methyl]pyrazol-4-yl]-2-methylindazol-3-yl]-2-(difluoromethoxy)-N-[(1-fluorocyclopropyl)methyl]-6-methoxybenzamide] |
| 17 | 10.2 | 10.9 | COc1cc(-c2c3c(C#N)cc(-c4cnn(CC[C@@H](C)O)c4)cc3nn2C)cc(OC(F)F)c1C(=O)NCC1(F)CC1 [Example 92, 4-[4-cyano-6-[1-[(3R)-3-hydroxybutyl]pyrazol-4-yl]-2-methylindazol-3-yl]-2-(difluoromethoxy)-N-[(1-fluorocyclopropyl)methyl]-6-methoxybenzamide] |
| 19.8 | 5.9 | 13.5 | CC[C@H](O)Cn1cc(-c2cc(C#N)c3c(-c4cc(OC)c(C(=O)NCC5(F)CC5)c(OC(F)F)c4)n(C)nc3c2)cn1 [Example 93, 4-[4-cyano-6-[1-[(2S)-2-hydroxybutyl]pyrazol-4-yl]-2-methylindazol-3-yl]-2-(difluoromethoxy)-N-[(1-fluorocyclopropyl)methyl]-6-methoxybenzamide] |
| 17.9 | 10.3 | 10.5 | COc1cc(-c2c3c(C#N)cc(-c4cnn(CC(=O)N(C)C)c4)cc3nn2C)cc(OC(F)F)c1C(=O)NCC1(F)CC1 [Example 98, 4-[4-cyano-6-[1-[2-(dimethylamino)-2-oxoethyl]pyrazol-4-yl]-2-methylindazol-3-yl]-2-(difluoromethoxy)-N-[(1-fluorocyclopropyl)methyl]-6-methoxybenzamide] |

More lines, now with the values behind:

| SMILES | IC50 [1] [nM] | IC50 [2] [nM] | IC50 [3] [nM] |
| --- | --- | --- | --- |
| COc1cc(-c2c3c(C#N)cc(-c4cnn(C)c4)cc3nn2C)cc2c1C(=O)NCC2C (stereo not drawn) [Example 77, 3-(8-methoxy-4-methyl-1-oxo-3,4-dihydro-2H-isoquinolin-6-yl)-2-methyl-6-(1-methylpyrazol-4-yl)indazol-4-carbonitrile] | 11.8 | 10.1 | 5.2 |
| COc1cc(-c2c3c(C(F)F)cc(-c4cnn(C)c4)cc3nn2C)cc(OC(F)F)c1C(N)=O [Example 87, 2-(difluoromethoxy)-4-[4-(difluoromethyl)-2-methyl-6-(1-methylpyrazol-4-yl)indazol-3-yl]-6-methoxybenzamide] | 18.5 | 4.3 | 14.6 |
| COc1cc(-c2c3c(C(F)F)cc(-c4cnn(C[C@H](C)O)c4)cc3nn2C)cc(OC(F)F)c1C(=O)N[C@@H]1CC1(F)F [Example 89, N-[(1R)-2,2-difluorocyclopropyl]-2-(difluoromethoxy)-4-[4-(difluoromethyl)-6-[1-[(2S)-2-hydroxypropyl]pyrazol-4-yl]-2-methylindazol-3-yl]-6-methoxybenzamide] | 11 | 2.3 | 12 |
| COc1cc(-c2c3c(C#N)cc(-c4cnn(CCC(C)(C)O)c4)cc3nn2C)cc(OC(F)F)c1C(=O)NCC1(F)CC1 [Example 90] | 17.8 | 7.9 | 10.4 |
| COc1cc(-c2c3c(C#N)cc(-c4cnn(C[C@H](C)O)c4)cc3nn2C)cc(OC(F)F)c1C(=O)N[C@@H]1CC1(F)F [Example 94, 4-[4-cyano-6-[1-[(2S)-2-hydroxypropyl]pyrazol-4-yl]-2-methylindazol-3-yl]-N-[(1R)-2,2-difluorocyclopropyl]-2-(difluoromethoxy)-6-methoxybenzamide] | 6.7 | 2.3 | 5 |
| CCCn1cc(-c2cc(C#N)c3c(-c4cc(OC)c(C(N)=O)c(OC(F)F)c4)n(C)nc3c2)cn1 [Example 96, 4-[4-cyano-2-methyl-6-(1-propylpyrazol-4-yl)indazol-3-yl]-2-(difluoromethoxy)-6-methoxybenzamide] | 14 | 5 | 3.9 |
| COc1cc(-c2c3c(C#N)cc(-c4cnn(C[C@@H](O)c5ccccc5)c4)cc3nn2C)cc(OC(F)F)c1C(=O)NCC1(F)CC1 [Example 97, 4-[4-cyano-6-[1-[(2S)-2-hydroxy-2-phenylethyl]pyrazol-4-yl]-2-methylindazol-3-yl]-2-(difluoromethoxy)-N-[(1-fluorocyclopropyl)methyl]-6-methoxybenzamide] | 15.3 | 6.1 | 7.4 |
| COc1cc(-c2c3c(C#N)cc(-c4cnn(CC(=O)N5CC(F)(F)C5)c4)cc3nn2C)cc(OC(F)F)c1C(=O)NCC1(F)CC1 [Example 99, 4-[4-cyano-6-[1-[2-(3,3-difluoroazetidin-1-yl)-2-oxoethyl]pyrazol-4-yl]-2-methylindazol-3-yl]-2-(difluoromethoxy)-N-[(1-fluorocyclopropyl)methyl]-6-methoxybenzamide] | 19.2 | 4.9 | 5 |
| COc1cc(-c2c3c(C#N)cc(-c4cnn(CC(=O)N5CCCC5)c4)cc3nn2C)cc(OC(F)F)c1C(=O)NCC1(F)CC1 [Example 100] | 15.5 | 5.7 | 7.3 |
| COc1cc(-c2c3c(C#N)cc(-c4cnn(CC(=O)N5CCC(F)(F)C5)c4)cc3nn2C)cc(OC(F)F)c1C(=O)NCC1(F)CC1 [Example 101, 4-[4-cyano-6-[1-[2-(3,3-difluoropyrrolidin-1-yl)-2-oxoethyl]pyrazol-4-yl]-2-methylindazol-3-yl]-2-(difluoromethoxy)-N-[(1-fluorocyclopropyl)methyl]-6-methoxybenzamide] | 15 | 12 | 5.8 |
| COc1cc(-c2c3c(C#N)cc(-c4cnn(CC(F)F)c4)cc3nn2C)cc(OC(F)F)c1C(N)=O [Example 102, 4-[4-cyano-6-[1-(2,2-difluoroethyl)pyrazol-4-yl]-2-methylindazol-3-yl]-2-(difluoromethoxy)-6-methoxybenzamide] | 19.2 | 5.1 | 5.3 |
| COc1cc(-c2c3c(OCc4cncc(F)c4)cc(-c4cnn(C)c4)cc3nn2C)cc(OC(F)F)c1C(=O)N1CC(O)(C(F)(F)F)C1 [Example 103, [2-(difluoromethoxy)-4-[4-[(5-fluoropyridin-3-yl)methoxy]-2-methyl-6-(1-methylpyrazol-4-yl)indazol-3-yl]-6-methoxyphenyl]-[3-hydroxy-3-(trifluoromethyl)azetidin-1-yl]methanone] | 4.4 | 4.8 | 1.6 |
